Source: patent publication US20130053381A1, “2,4-DIOXO-1,4-DIHYDRO-2H-QUINAZOLIN-3-YL-SULFONAMIDE DERIVATIVES” (NOVARTIS AG, priority 2010, published 2013)

test system: OF1 mice; assay: Maximal electroshock test (MES Test); format: in vivo; conditions: Mus musculus, po; 50 mg/kg, p.o., pre-treatment time −1 h; read-out: %-Protection
Protocol: Compounds of the invention were tested in OF1 mice using the maximal electroshock test (MES Test) described in detail by Schmutz et al., Naunyn-Schmiedeberg's Arch Pharmacol 1990, 342, 61-66. Briefly, generalized tonic-clonic convulsions of the hind extremities were induced by passing electrical current through temporal electrodes (50 Hz, 18 mA, 0.2s). […] 30 mg/kg carbamazepine was used as a positive control; mice were classified as protected by a compound If the duration of the seizure lasted only 3 second or less. Five mice were used for each treatment condition and the percentage of protected mice was used as readout (i.e. a compound could give 0%, 20%, 40%, 60%, 80% or 100% protection). Usually, compounds of the invention or their parents were given at a dose of 50 mg/kg, p.o., 1 hour prior to induction of convulsions (i.e. “pre-treatment time −1 h”).
ED50 values (ED: effective dose) were calculated using GraphPad Prism, v4.02. after shock administration, mouse blood was collected for determination of compounds' blood exposure.

SMILES | responders at 50 mg/kg [%]
CC(=O)n1c(=O)n(N(C(=O)OCc2ccccc2)S(C)(=O)=O)c(=O)c2cc(-c3ccnn3C)c(C(C)C)cc21 [Example 3.27, [1-Acetyl-7-isopropyl-6-(2-methyl-2H-pyrazol-3-yl)-2,4-dioxo-1,4-dihydro-2H-quinazolin-3-yl]-methanesulfonyl-carbamic acid benzyl ester] | 100
COCCOCCOCC(=O)N(n1c(=O)[nH]c2cc(C(C)C)c(-c3ccnn3C)cc2c1=O)S(C)(=O)=O [Example 3.28, N-[7-Isopropyl-6-(2-methyl-2H-pyrazol-3-yl)-2,4-dioxo-1,4-dihydro-2H-quinazolin-3-yl]-N-[2-[2-(2-methoxy-ethoxy)-ethoxy]-acetyl]-methanesulfonamide] | 100
CC(C)c1cc2[nH]c(=O)n(N(C(=O)COCc3ccccc3)S(C)(=O)=O)c(=O)c2cc1-c1ccnn1C [Example 3.29, N-(2-Benzyloxy-acetyl)-N-[7-isopropyl-6-(2-methyl-2H-pyrazol-3-yl)-2,4-dioxo-1,4-dihydro-2H-quinazolin-3-yl]-methanesulfonamide] | 100
CC(C)c1cc2[nH]c(=O)n(N(C(=O)CCCOCc3ccccc3)S(C)(=O)=O)c(=O)c2cc1-c1ccnn1C [Example 3.30, N-(4-Benzyloxy-butyryl)-N-[7-isopropyl-6-(2-methyl-2H-pyrazol-3-yl)-2,4-dioxo-1,4-dihydro-2H-quinazolin-3-yl]-methanesulfonamide] | 100
CC(C)c1cc2[nH]c(=O)n(N(C(=O)CN3CCOCC3)S(C)(=O)=O)c(=O)c2cc1-c1ccnn1C [Example 3.31, N-[7-Isopropyl-6-(2-methyl-2H-pyrazol-3-yl)-2,4-dioxo-1,4-dihydro-2H-quinazolin-3-yl]-N-(2-morpholin-4-yl-acetyl)-methanesulfonamide] | 100
COC(=O)N(n1c(=O)c2cc(-c3ccnn3C)c(C(C)C)cc2n(C(=O)OC)c1=O)S(C)(=O)=O [Example 3.32, 7-Isopropyl-3-(methoxycarbonyl-methanesulfonyl-amino)-6-(2-methyl-2H-pyrazol-3-yl)-2,4-dioxo-3,4-dihydro-2H-quinazoline-1-carboxylic acid methyl ester] | 80
CCOC(=O)N(n1c(=O)c2cc(-c3ccnn3C)c(C(C)C)cc2n(C(=O)OCC)c1=O)S(C)(=O)=O [Example 3.33] | 80
CCCOC(=O)N(n1c(=O)c2cc(-c3ccnn3C)c(C(C)C)cc2n(C(=O)OCCC)c1=O)S(C)(=O)=O [Example 3.34, 7-Isopropyl-3-(methanesulfonyl-propoxycarbonyl-amino)-6-(2-methyl-2H-pyrazol-3-yl)-2,4-dioxo-3,4-dihydro-2H-quinazoline-1-carboxylic acid propyl ester] | 80
CCCCOC(=O)N(n1c(=O)c2cc(-c3ccnn3C)c(C(C)C)cc2n(C(=O)OCCCC)c1=O)S(C)(=O)=O [Example 3.35, 3-(Butoxycarbonyl-methanesulfonyl-amino)-7-isopropyl-6-(2-methyl-2H-pyrazol-3-yl)-2,4-dioxo-3,4-dihydro-2H-quinazoline-1-carboxylic acid butyl ester] | 80
COC(=O)n1c(=O)n(N(C(C)=O)S(C)(=O)=O)c(=O)c2cc(-c3ccnn3C)c(C(C)C)cc21 [Example 3.36, 3-(Acetyl-methanesulfonyl-amino)-7-isopropyl-6-(2-methyl-2H-pyrazol-3-yl)-2,4-dioxo-3,4-dihydro-2H-quinazoline-1-carboxylic acid methyl ester] | 100
CC(C)c1cc2[nH]c(=O)n(N(C(=O)CCCN3CCOCC3)S(C)(=O)=O)c(=O)c2cc1-c1ccnn1C [Example 3.37, N-[7-Isopropyl-6-(2-methyl-2H-pyrazol-3-yl)-2,4-dioxo-1,4-dihydro-2H-quinazolin-3-yl]-N-(4-morpholin-4-yl-butyryl)-methanesulfonamide] | 100
CC(C)c1cc2[nH]c(=O)n(N(C(=O)CCN3CCOCC3)S(C)(=O)=O)c(=O)c2cc1-c1ccnn1C [Example 3.38, N-[7-Isopropyl-6-(2-methyl-2H-pyrazol-3-yl)-2,4-dioxo-1,4-dihydro-2H-quinazolin-3-yl]-N-(3-morpholin-4-yl-propionyl)-methanesulfonamide] | 80
CCOC(=O)CCC(=O)N(n1c(=O)[nH]c2cc(C(F)(F)F)c(-n3ccnc3)cc2c1=O)S(C)(=O)=O [Example 4.01, 4-[(6-Imidazol-1-yl-2,4-dioxo-7-trifluoromethyl-1,4-dihydro-2H-quinazolin-3-yl)-methanesulfonyl-amino]-4-oxo-butyric acid ethyl ester] | 20
CCCCC(=O)N(n1c(=O)[nH]c2cc(C(F)(F)F)c(-n3ccnc3)cc2c1=O)S(C)(=O)=O [Example 4.02, N-(6-Imidazol-1-yl-2,4-dioxo-7-trifluoromethyl-1,4-dihydro-2H-quinazolin-3-yl)-N-pentanoyl-methanesulfonamide] | 100
CC(=O)N(n1c(=O)[nH]c2cc(C(F)(F)F)c(-n3ccnc3)cc2c1=O)S(C)(=O)=O [Example 4.03, N-Acetyl-N-(6-imidazol-1-yl-2,4-dioxo-7-trifluoromethyl-1,4-dihydro-2H-quinazolin-3-yl)-methanesulfonamide] | 40
CC(C)C(=O)N(n1c(=O)[nH]c2cc(C(F)(F)F)c(-n3ccnc3)cc2c1=O)S(C)(=O)=O [Example 4.05, N-(6-Imidazol-1-yl-2,4-dioxo-7-trifluoromethyl-1,4-dihydro-2H-quinazolin-3-yl)-N-isobutyryl-methanesulfonamide] | 80
CC(C)CC(=O)N(n1c(=O)[nH]c2cc(C(F)(F)F)c(-n3ccnc3)cc2c1=O)S(C)(=O)=O [Example 4.06, N-(6-Imidazol-1-yl-2,4-dioxo-7-trifluoromethyl-1,4-dihydro-2H-quinazolin-3-yl)-N-(3-methyl-butyryl)-methanesulfonamide] | 20
CS(=O)(=O)N(C(=O)C1CCCC1)n1c(=O)[nH]c2cc(C(F)(F)F)c(-n3ccnc3)cc2c1=O [Example 4.07] | 40
CCCCCC(=O)N(n1c(=O)[nH]c2cc(C(F)(F)F)c(-n3ccnc3)cc2c1=O)S(C)(=O)=O [Example 4.08, N-Hexanoyl-N-(6-imidazol-1-yl-2,4-dioxo-7-trifluoromethyl-1,4-dihydro-2H-quinazolin-3-yl)-methanesulfonamide] | 20
CCCC(=O)N(n1c(=O)[nH]c2cc(C(F)(F)F)c(-n3ccnc3)cc2c1=O)S(C)(=O)=O [Example 4.09, N-Butyryl-N-(6-imidazol-1-yl-2,4-dioxo-7-trifluoromethyl-1,4-dihydro-2H-quinazolin-3-yl)-methanesulfonamide] | 40
CC(=O)N(n1c(=O)[nH]c2cc(C(F)(F)F)c(-c3ccnn3C(C)C)cc2c1=O)S(C)(=O)=O [Example 5.01, N-Acetyl-N-[6-(2-isopropyl-2H-pyrazol-3-yl)-2,4-dioxo-7-trifluoromethyl-1,4-dihydro-2H-quinazolin-3-yl]-methanesulfonamide] | 60

same assay, conditions: Mus musculus, po; 50 mg/kg, p.o., pre-treatment time −2 h (footnote a); read-out: %-Protection

SMILES | responders at 50 mg/kg [%]
CCC(=O)N(n1c(=O)[nH]c2cc(C(F)(F)F)c(-n3ccnc3)cc2c1=O)S(C)(=O)=O [Example 4.04, N-(6-Imidazol-1-yl-2,4-dioxo-7-trifluoromethyl-1,4-dihydro-2H-quinazolin-3-yl)-N-propionyl-methanesulfonamide] | 40

same assay, conditions: single 50 mg/kg p.o. dose; 30 min after treatment, MES Test

SMILES | %-seizure protection [%]
CCCCC(=O)N(n1c(=O)[nH]c2cc(C(F)(F)F)c(-n3ccnc3)cc2c1=O)S(C)(=O)=O [Example 4.02, N-(6-Imidazol-1-yl-2,4-dioxo-7-trifluoromethyl-1,4-dihydro-2H-quinazolin-3-yl)-N-pentanoyl-methanesulfonamide] | 100
